Measurements taken from ChEMBL document CHEMBL4196118, “Discovery of MK-8318, a Potent and Selective CRTh2 Receptor Antagonist for the Treatment of Asthma” (ACS Med Chem Lett, 2018).
Each block holds one compound with its values, some of them ahead of it.

Key:
[1] = AUC (0 to 6 hrs) in rat at 0.5 mg/kg, iv; type: ADME, organism-based; design: time < 6 hr, dose 0.5 mg/kg, route intravenous; details: in vivo
[2] = target: T1, Prostaglandin D2 receptor 2 (Homo sapiens, UniProt Q9Y5Y4); experiment: biochemical
T1 sequence (Q9Y5Y4 whole entry): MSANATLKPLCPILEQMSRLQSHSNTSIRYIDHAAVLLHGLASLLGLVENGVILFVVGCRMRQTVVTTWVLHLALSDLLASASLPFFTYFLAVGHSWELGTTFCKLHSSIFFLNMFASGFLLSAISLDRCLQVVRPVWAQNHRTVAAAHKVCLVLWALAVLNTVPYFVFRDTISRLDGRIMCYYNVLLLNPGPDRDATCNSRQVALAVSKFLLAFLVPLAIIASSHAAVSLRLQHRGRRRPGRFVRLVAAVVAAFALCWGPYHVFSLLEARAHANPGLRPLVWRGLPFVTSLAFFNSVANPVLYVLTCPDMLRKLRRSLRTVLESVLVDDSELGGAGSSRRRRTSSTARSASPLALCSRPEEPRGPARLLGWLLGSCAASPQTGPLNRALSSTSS
Description: Displacement of [3H]PGD2 from human CRTh2 expressed in HEK cell membranes after 60 mins by scintillation counting method

[3] = target: T1, Prostaglandin D2 receptor 2
Description: Antagonist activity at human CRTh2 expressed in CHOK1 cells assessed as inhibition of PGD2-induced beta-arrestin recruitment incubated for 30 mins followed by PGD2 stimulation measured after 60 mins by PathHunter based chemiluminescence assay

[4] = Intrinsic clearance in rat hepatocytes assessed per million cells; type: ADME, cell-based, Hepatocyte; details: read-out: CLH
[5] = target: T1, Prostaglandin D2 receptor 2; remark: listed apart in the source
[6] = target: T1, Prostaglandin D2 receptor 2; experiment: […] activity at human CRTh2 expressed in HEK cells assessed as forskolin-induced intracellular cAMP accumulation by ELISA based chemiluminescence assay; type: functional, cell-based
[7] = AUC (0 to 6 hrs) in rat at 2 mg/kg, iv; type: ADME, organism-based; design: time < 6 hr, dose 2 mg/kg, route intravenous; details: in vivo

AUC(0-t) at 6 h [1]: 43 nM·h
SMILES: O=C(O)CCC(=O)N(C1CC1)[C@H]1c2ccc(F)cc2N(C(=O)c2ccc(OC(F)(F)F)cc2)[C@H]2CCC[C@H]21

Ki [2]: 0.0086 µM
SMILES: O=C(O)CCC(=O)N(C1CCC1)[C@H]1c2ccccc2N(C(=O)c2ccc(OC(F)(F)F)cc2)[C@H]2CCCC21 (single isomer, unassigned)

IC50 [3]: 0.0014 µM
hepatocyte CLint [4]: 13 µL/min/1e6 cells
IC50 [5]: 0.002 µM
Ki [2]: 0.0035 µM
SMILES: O=C(O)COC(=O)N(C1CC1)[C@H]1c2ccccc2N(C(=O)c2ccc(F)cc2)[C@H]2CC[C@H]21

Ki [2]: 0.031 µM
SMILES: CCc1ccc2c(c1)[C@H](N(C(=O)CCC(=O)O)C1CC1)[C@@H]1CCC[C@@H]1N2C(=O)c1ccc(OC(F)(F)F)cc1

IC50 [5]: 1.84 µM
Ki [2]: 0.026 µM
SMILES: CCN(C(C)=O)[C@H]1c2ccccc2N(C(=O)c2ccccc2)[C@H]2CCC[C@@H]12

IC50 [5]: 0.041 µM
Ki [2]: 0.01 µM
SMILES: O=C(O)CCC(=O)N(C1CC1)C1c2ccccc2N(C(=O)c2ccccc2)C2CCCC21 (racemic)

Ki [2]: 0.3 µM
SMILES: O=C(O)CCC(=O)N(C1CC1)[C@H]1c2cc(-c3cncnc3)ccc2N(C(=O)c2ccc(OC(F)(F)F)cc2)[C@H]2CCC[C@H]21

Ki [2]: 0.064 µM
SMILES: CC1(N(C(=O)CCC(=O)O)[C@H]2c3ccccc3N(C(=O)c3ccc(OC(F)(F)F)cc3)[C@H]3CCCC32)CC1 (single isomer, unassigned)

IC50 [3]: 0.059 µM
IC50 [5]: 0.11 µM
Ki [2]: 0.0023 µM
SMILES: O=C(O)CCC(=O)N(C1CC1)[C@H]1c2ccc(Cl)cc2N(C(=O)c2ccc(OC(F)(F)F)cc2)[C@H]2CCC[C@H]21

Ki [2]: 0.016 µM
SMILES: CN(C(=O)CCC(=O)O)[C@H]1c2ccccc2N(C(=O)c2ccc(OC(F)(F)F)cc2)[C@H]2CCCC12 (single isomer, unassigned)

Ki [2]: 0.056 µM
SMILES: O=C(O)CCC(=O)N(C1CC1)[C@H]1c2ccccc2N(C(=O)Nc2ccccc2)[C@H]2CCC[C@H]21

IC50 [3]: 0.043 µM
hepatocyte CLint [4]: 15 µL/min/1e6 cells
AUC(0-t) at 6 h [1]: 310 nM·h
Ki [2]: 0.005 µM
SMILES: O=C(O)CCC(=O)N(C1CC1)[C@H]1c2ccccc2N(C(=O)c2cccc(OC(F)(F)F)c2)[C@H]2CC[C@H]21

Ki [2]: 0.009 µM
SMILES: O=C(O)CCC(=O)N(CC1CCC1)[C@H]1c2ccccc2N(C(=O)c2ccc(OC(F)(F)F)cc2)[C@H]2CCCC12 (single isomer, unassigned)

AUC(0-t) at 6 h [1]: 270 nM·h
Ki [2]: 0.012 µM
SMILES: O=C(O)CCC(=O)N(C1CC1)[C@H]1c2ccccc2N(C(=O)OCc2ccc(F)cc2)[C@H]2CCC[C@H]21

IC50 [3]: 0.0011 µM
hepatocyte CLint [4]: 20 µL/min/1e6 cells
IC50 [5]: 0.0008 µM
Ki [2]: 0.0041 µM
SMILES: O=C(O)COC(=O)N(C1CC1)[C@H]1c2ccccc2N(C(=O)c2cccc(F)c2)[C@H]2CC[C@H]21

IC50 [3]: 0.0093 µM
hepatocyte CLint [4]: 16 µL/min/1e6 cells
AUC(0-t) at 6 h [1]: 300 nM·h
Ki [2]: 0.0081 µM
SMILES: O=C(O)CCC(=O)N(C1CC1)[C@H]1c2ccccc2N(C(=O)c2cccc(F)c2)[C@H]2CC[C@H]21

IC50 [5]: 0.21 µM
Ki [2]: 0.025 µM
SMILES: O=C(O)CCC(=O)N(C1CC1)C1c2ccccc2N(C(=O)OCc2ccccc2)C2CCC21 (racemic)

Ki [2]: 0.11 µM
SMILES: O=C(O)CCC(=O)N(C1CC1)[C@H]1c2cc(-c3ccc(F)cc3)ccc2N(C(=O)c2ccc(OC(F)(F)F)cc2)[C@H]2CCC[C@H]21

Ki [2]: 0.51 µM
SMILES: CC(CC(=O)N(C1CC1)[C@H]1c2ccccc2N(C(=O)OCc2ccccc2)[C@H]2CCC[C@H]21)C(=O)O (some centres not stated)

AUC(0-t) at 6 h [1]: 630 nM·h
SMILES: C[C@@H](OC(=O)N1c2ccccc2[C@H](N(C(=O)CCC(=O)O)C2CC2)[C@@H]2CCC[C@@H]21)c1ccc(F)cc1

Ki [2]: 0.098 µM
SMILES: O=C(c1ccc(OC(F)(F)F)cc1)N1c2ccccc2[C@H](N(C(=O)CCc2nn[nH]n2)C2CC2)[C@@H]2CCC[C@@H]21

Ki [2]: 0.043 µM
SMILES: O=C(O)CCC(=O)N(C1CC1)[C@H]1c2cc(C3CC3)ccc2N(C(=O)c2ccc(OC(F)(F)F)cc2)[C@H]2CCC[C@H]21

IC50 [3]: 0.0014 µM
hepatocyte CLint [4]: 18 µL/min/1e6 cells
IC50 [5]: 0.0009 µM
Ki [2]: 0.0025 µM
SMILES: O=C(O)COC(=O)N(C1CC1)[C@H]1c2ccccc2N(C(=O)c2ccc(OC(F)(F)F)cc2)[C@H]2CC[C@H]21

Ki [2]: 0.05 µM
SMILES: CC(C)N(C(=O)CCC(=O)O)[C@H]1c2ccccc2N(C(=O)c2ccc(OC(F)(F)F)cc2)[C@H]2CCCC21 (single isomer, unassigned)

Ki [2]: 0.84 µM
SMILES: O=C(O)c1ccccc1C(=O)N(C1CC1)[C@H]1c2ccccc2N(C(=O)c2ccc(OC(F)(F)F)cc2)[C@H]2CCC[C@H]21

Ki [2]: 1.49 µM
SMILES: O=C(O)CCCC(=O)N(C1CC1)C1c2ccccc2N(C(=O)OCc2ccccc2)C2CCCC21 (racemic)

IC50 [3]: 0.012 µM
hepatocyte CLint [4]: 14 µL/min/1e6 cells
IC50 [5]: 0.02 µM
AUC(0-t) at 6 h [1]: 460 nM·h
Ki [2]: 0.0073 µM
SMILES: O=C(O)CCC(=O)N(C1CC1)[C@H]1c2ccccc2N(C(=O)c2ccc(F)cc2)[C@H]2CC[C@H]21

AUC(0-t) at 6 h [1]: 320 nM·h
SMILES: C[C@H](OC(=O)N1c2ccccc2[C@H](N(C(=O)CCC(=O)O)C2CC2)[C@@H]2CCC[C@@H]21)c1ccc(F)cc1

hepatocyte CLint [4]: 13 µL/min/1e6 cells
SMILES: O=C(O)CCC(=O)N(C1CC1)[C@H]1c2ccccc2N(C(=O)c2ccc(OC(F)(F)F)cc2)[C@H]2CC[C@H]21

Ki [2]: 0.035 µM
SMILES: O=C(O)CCC(=O)N(CCC(F)(F)F)[C@H]1c2ccccc2N(C(=O)c2ccc(OC(F)(F)F)cc2)[C@H]2CCCC12 (single isomer, unassigned)

EC50 [6]: 0.012 µM
IC50 [5]: 2.92 µM
Ki [2]: 0.051 µM
SMILES: CCN(c1nc(C(=O)O)cs1)[C@H]1c2ccccc2N(C(=O)OCc2ccccc2)[C@H]2CCC[C@@H]12

Ki [2]: 7.8 µM
SMILES: CC(C)(CC(=O)N(C1CC1)[C@H]1c2ccccc2N(C(=O)OCc2ccccc2)[C@H]2CCC[C@H]21)C(=O)O

Ki [2]: 0.012 µM
SMILES: CCN(C(=O)CCC(=O)O)[C@H]1c2ccccc2N(C(=O)c2ccc(OC(F)(F)F)cc2)[C@H]2CCCC12 (single isomer, unassigned)

IC50 [5]: 0.175 µM
Ki [2]: 0.032 µM
SMILES: O=C(O)CCC(=O)N(C1CC1)C1c2ccccc2N(C(=O)OCc2ccccc2)C2CCCCC21 (racemic)

Ki [2]: 0.014 µM
SMILES: O=C(O)CCC(=O)N(C1CC1)[C@H]1c2cc(C(F)F)ccc2N(C(=O)c2ccc(OC(F)(F)F)cc2)[C@H]2CCC[C@H]21

IC50 [3]: 0.0024 µM
IC50 [5]: 0.012 µM
Ki [2]: 0.0084 µM
AUC(0-t) at 6 h [7]: 1870 nM·h
SMILES: O=C(O)CCC(=O)N(C1CC1)[C@H]1c2cc(F)ccc2N(C(=O)c2ccc(SC(F)(F)F)cc2)[C@H]2CCC[C@H]21

Ki [2]: 0.028 µM
SMILES: O=C(O)CCC(=O)N(C1CC1)[C@H]1c2ccccc2N(c2nnc(-c3ccccc3)o2)[C@H]2CCC[C@H]21

AUC(0-t) at 6 h [1]: 620 nM·h
Ki [2]: 0.007 µM
SMILES: O=C(O)CCC(=O)N(C1CC1)[C@H]1c2ccccc2N(C(=O)c2ccc(OC(F)(F)F)cc2)[C@H]2CCCC21 (single isomer, unassigned)

Ki [2]: 0.0094 µM
SMILES: O=C(O)COC(=O)N(C1CC1)C1c2ccccc2N(C(=O)c2ccccc2)C2CCCC21 (racemic)

Ki [2]: 0.082 µM
SMILES: C[C@H](CC(=O)N(C1CC1)[C@H]1c2ccccc2N(C(=O)OCc2ccccc2)[C@H]2CCC[C@H]21)C(=O)O

Ki [2]: 0.66 µM
SMILES: O=C(O)CCC(=O)N(C1CC1)[C@H]1c2ccccc2N(CC(=O)Nc2ccc(F)cc2)[C@H]2CCC[C@H]21

IC50 [3]: 0.012 µM
IC50 [5]: 0.018 µM
AUC(0-t) at 6 h [1]: 1050 nM·h
Ki [2]: 0.0034 µM
SMILES: O=C(O)CCC(=O)N(C1CC1)[C@H]1c2cc(F)c(Cl)cc2N(C(=O)c2ccc(OC(F)(F)F)cc2)[C@H]2CCC[C@H]21
